Data set [1] concerns S. aureus specific Arg ASL (anticodon stem loop) RNA oligomer interaction with programmed ribosomes. Nature of the data set: Fluorescence polarization assay of Arg ASL / programmed ribosome complex (HTS and dose response). The data set is classed as binding, S. aureus Arg ASL; E. coli 70S ribosomes. Particulars: 6 pt dose response, fluorescence polarization after 4 hours at 25° C., corrected for auto-fluorescence. An excerpt: The assay requires the following materials: • Ribosomes—isolated from E. coli or S. aureus • fMet tRNA (Sigma or Chemical Block, Moscow) • mRNA (including the S-D sequence, the “box” sequence, the codon for methionine, and the codon for arginine that is specific for S. aureus, AGA, optionally with additional base pairs to the left of the S-D sequence and/or to the right of the codon for arginine) • Fluorescently labeled Arg ASL oliogomer • Buffer—HAM20,β • 384 well high binding micro titer plates (Matrix Technologies #4319, sold by Fischer Scientific as cat #50823855), or other appropriate plates for use in high throughput screening • Filtration (Sartorius Stedium 100 Kdalton VC 1042) or centrifugation for complex purification • EDTA—negative control (binding antagonist) • Neomycin—A-site binding enhancer (binding agonist)
A ribosome complex was prepared using the above materials and then purified prior to use in the assay. The prepared complex can be stored in concentrated form at −80° C. The complexes were diluted in buffer and dispensed onto plates. […] Fluorescence polarization was measured at approximately 4 hours after dispensing onto the micro-titer plates.
ASL^Arg was first heated for 2 min at 90° C. in water, after addition of 1/10 V of 10× buffer incubation continued on ice for at least 10 min. Prior to complex formation 70S ribosomes and tRNA were reactivated in buffer for 5 min at 45° C. followed by 10 min at 37° C.; mRNA was heated in buffer at 37° C. for 5 min. • (1000 μl×(2 μM E. coli 70S ribosomes+10 μM mRNA-Arg+4 μM tRNA^fmet)/HAM20,β→30 min @ 37° C.,+1000 μl×(0.2 μM neomycin+[…]))→20 min @ 37° C., overnight on ice • Final complex: (2000 pm P+2000 pm ASL)/2 ml=1 μM P+1 μM ASL HAM20,β:
Preparation of Complexes: The purified complex was diluted in ice cold HAM20,β such that the total fluorescence was approximately 2,000,000 units per 5 μL.
20 μl of the diluted complex was added to all 384 well plates (except for blank wells, which received 20 μL of HAM20 only, without complex) using Multidrop dispenser after which the plates were incubated at 25° C. for 4 hours (target 4.5 hours for middle of batch). Plates were then analyzed for fluorescence polarization in Analyst HT fluorescence plate reader and the following instrument settings:
The parallel and perpendicular fluorescence values of experimental wells were automatically corrected for the corresponding values obtained from the blank wells. The fluorescence polarization was calculated as following: P=(I−Ip)/(I+Ip), wherein Ip—is perpendicular fluorescence and I—is parallel fluorescence.
The percent of effect of experimental compounds was calculated as following: %-Inh=(P0−Pc)/(P0−P100)*100, wherein P0—is average polarization in 0%—inhibition control wells, P100—is average polarization in 100%—inhibition control wells, and Pc—is polarization in compound well.
The 3 sigma HTS hits were cherry picked and retested in 6 pt dose response format, using 3× serial dilution and the top nominal concentration of 100 uM.
The compounds were serially diluted in 10% DMSO and plated into 384 well plates (in a volume of 5 μL) to achieve the nominal final concentration raging from 100 μM to 0.4 μM. The plates received 20 μl of the diluted complex following incubation at 25° C. for 4 hours. Plates were then analyzed for fluorescence polarization as described above (see HTS section).
In parallel, the compounds were tested for auto-fluorescence. To this end, the compounds were plated (using the same dilution protocol) into 384 well plates. The plates received 20 μL of the HAM20 assay buffer only (without complex). The plates were incubated for 4 hrs and then were analyzed for fluorescence polarization as described above.

The subject of data set [2] is SA 158 (Staphylococcus aureus 158). Description: MIC. It counts as cell-based. The method, then: (§1) The strains included Staphylococcus aureus, Methicillin Resistant (ATCC 33591), Methicillin-Resistant Staphylococcus aureus USA300, Staphylococcus aureus 158, Staphylococcus aureus 22, Staphylococcus aureus 2, Staphylococcus aureus (ATCC 29213), and Staphylococcus aureus 182.
(§2) A series of compounds were evaluated for their activity against drug resistant S. aureus, including MSSA and MRSA strains.

Data set [3] concerns SA 182 (Staphylococcus aureus 182). Nature of the data set: MIC. It counts as cell-based. The method, then:
as §1, §2

Data set [4] deals with SA 2 (Staphylococcus aureus 2). Nature of the data set: MIC. The data set is classed as cell-based. The method, then:
as §1, §2

Data set [5] relates to SA 22 (Staphylococcus aureus 22). Description: MIC. The data set is classed as cell-based. The method, then: as §1, §2
The subject of data set [6] is SA 29213 (Staphylococcus aureus (ATCC 29213)). Nature of the data set: MIC. It counts as cell-based. The method, then:
as §1, §2

In data set [7] the test system is SA 33591 (Staphylococcus aureus, Methicillin Resistant (ATCC 33591)). Nature of the data set: MIC. It counts as cell-based. The method, then:
as §1, §2

Data set [8] deals with SA USA 300 (Methicillin-Resistant Staphylococcus aureus USA300). Description: MIC. It counts as cell-based. The method, then: as §1, §2
Data set [9] relates to E. faecalis 161651. Description: MIC. It counts as cell-based. As to conditions: Enterococcus faecalis. The method, then: (§3) The compounds were re-tested against other bacteria, including Staphylococcus epidermidis (ATCC 35984), Staphylococcus epidermidis (MRSE), E. faecium 134529, E. faecium 145494, […], E. faecium 161651, S. pneumoniae 49619, and S. pneumoniae 149389.
as §2

Data set [10] has as its system E. faecalis 29212. Description: MIC. It counts as cell-based. Particulars: Enterococcus faecalis. The method, then:
as §3, §2

Data set [11] concerns E. faecium 134529. Nature of the data set: MIC. The data set is classed as cell-based. As to conditions: Enterococcus faecium. The method, then:
as §3, §2

In data set [12] the test system is E. faecium 145494. Description: MIC. It counts as cell-based. As to conditions: Enterococcus faecium. The method, then: as §3, §2
Data set [13] relates to S. epidermidis 35984. Description: MIC. Particulars: Staphylococcus epidermidis. The data set is classed as cell-based. The method, then: as §3, §2
Data set [14] has as its system S. epidermidis MRSE 01. Description: MIC. Particulars: Staphylococcus epidermidis. The data set is classed as cell-based. The method, then: as §3, §2
Data set [15] concerns S. pneumoniae 149389. Description: MIC. The data set is classed as cell-based. Particulars: Streptococcus pneumoniae. The method, then:
as §3, §2

Data set [16] has as its system S. pneumoniae 49619. Description: MIC. As to conditions: Streptococcus pneumoniae. The data set is classed as cell-based. The method, then: as §3, §2
Data set [17] concerns E. coli 25922. Nature of the data set: MIC. Particulars: Escherichia coli. The data set is classed as cell-based.
Data set [18] deals with E. coli ESBL 4. Description: MIC. It counts as cell-based. Particulars: Escherichia coli, ESBL4.
Data set [19] concerns K. pneumoniae 700603. Nature of the data set: MIC. It counts as cell-based. Particulars: Klebsiella pneumoniae.
The test system of data set [20] is K. pneumoniae UMM. Nature of the data set: MIC. The data set is classed as cell-based. As to conditions: Klebsiella pneumoniae.
Data set [21] is described as follows: Mammalian Cell Toxicity. The data set is classed as cell-based. As to conditions: human, MRC5 cells.
The nature of data set [22]: Mammalian Cell Toxicity. Particulars: mouse, 3T3 cells. The data set is classed as cell-based.

pIC50: −log10 of the molar value. In brackets after ≈: the same amount, converted by molar mass. Where two headings read alike, the source gives them in different places. Where only a bound is given, the exact number is not on record here.

With `CCN1C(=O)C2Cc3c([nH]c4ccccc34)CN2C1=S` (centres unmarked) [Compound #740, 2-ethyl-3-thioxo-2,3,5,6,11,11a-hexahydro-1H-imidazo[1′,5′:1,6]pyrido[3,4-b]indol-1-one], the pIC50 in data set [1] (read-out: IC50) was 4.35. In addition, the MIC in data set [2] (SA 158, read-out: MIC) was found to be 128 µg/mL (≈ 449 µM); in data set [3] (SA 182, read-out: MIC), 128 µg/mL (≈ 449 µM); in data set [4] (SA 2, read-out: MIC), 32 µg/mL (≈ 112 µM); in data set [5] (SA 22, read-out: MIC), 32 µg/mL (≈ 112 µM); in data set [6] (ATCC29213, SA 29213, read-out: MIC), 64 µg/mL (≈ 224 µM); in data set [7] (ATCC33591, SA 33591, read-out: MIC), 128 µg/mL (≈ 449 µM). In addition, the MIC was 128 µg/mL (≈ 449 µM) in [8] (SA USA 300, read-out: MIC); 128 µg/mL (≈ 449 µM) in data set [9] (E. faecalis 161651, read-out: MIC); 128 µg/mL (≈ 449 µM) in data set [10] (E. faecalis 29212, read-out: MIC); 64 µg/mL (≈ 224 µM) in data set [11] (E. faecium 134529, read-out: MIC); greater than 128 µg/mL in data set [12] (E. faecium 145494, read-out: MIC); 128 µg/mL (≈ 449 µM) in data set [13] (S. epidermidis 35984, read-out: MIC). Also, the MIC in [14] (S. epidermidis MRSE 01, read-out: MIC) is 64 µg/mL (≈ 224 µM); in data set [15] (S. pneumoniae 149389, read-out: MIC), greater than 128 µg/mL; in [16] (S. pneumoniae 49619, read-out: MIC), greater than 128 µg/mL; in data set [17] (E. coli 25922, read-out: MIC) it was greater than 128 µg/mL; in data set [18] (E. coli ESBL 4, read-out: MIC) it was greater than 128 µg/mL; in data set [19] (K. pneumoniae 700603, read-out: MIC), greater than 128 µg/mL. For the same compound, the MIC in data set [20] (K. pneumoniae UMM, read-out: MIC) is greater than 128 µg/mL. For the same compound, the CC50 was 62 µg/mL (≈ 217 µM) in data set [21] and 20 to 64 µg/mL (≈ 70.1 to 224 µM) in data set [22].

In the case of `CC[n+]1c(C=CC=CN(C(C)=O)c2ccccc2)sc2ccccc21.[I-]` [Compound #928, 2-{4-[acetyl(phenyl)amino]-1,3-butadien-1-yl}-3-ethyl-1,3-benzothiazol-3-ium iodide], the IC50 entry in data set [1] was “agonist”. Also, the MIC was 128 µg/mL in data set [2]; greater than 128 µg/mL in data set [3]; 128 µg/mL in data set [4]; 64 µg/mL in [5]; 64 µg/mL in [6] (ATCC29213); 128 µg/mL in data set [7] (ATCC33591). Also, the MIC in data set [8] was 64 µg/mL; in data set [9] (161651), 128 µg/mL; in data set [10] (29212), 128 µg/mL; in data set [11] (134529) it was 128 µg/mL; in [12] (145494), 128 µg/mL; in data set [13] (35984), 128 µg/mL. In addition, the MIC in [14] (MRSE) is 64 µg/mL; in [15] (149389) it was greater than 128 µg/mL; in [16] (49619), greater than 128 µg/mL; in [17] (25922), greater than 128 µg/mL; in data set [18] it was greater than 128 µg/mL; in data set [19] (700603), greater than 128 µg/mL. The minimal inhibitory concentration (MIC) in [20] is greater than 128 µg/mL. Also, the CC50 in data set [21] and in data set [22] was 20 to 64 µg/mL throughout.

The record behind these values is patent US10316371B2, “Screening methods for identifying specific Staphylococcus aureus inhibitors” (TRANA DISCOVERY, INC., priority 2011, dated 2019).
